We go through one compound from patent US12036200B2, “Bismuth-thiol compositions and methods for treating wounds” (Microbion Corporation, priority 2018, dated 2024).

Entries after “also recorded” stand apart in the source; their conditions may differ.

The subject of data set [1] is subjects with a moderate to severe DFI. Nature of the data set: Phase 1b/2a DFI study (Example 7): microbiological response, colonization, reinfection, relapse. The class given is in vivo, human. The method, then:
Efficacy: The following clinical and microbiological efficacy outcomes were assessed: • Proportion of subjects with a clinical cure of infection 2 weeks following the end of dosing, TOC with BisEDT or placebo. Subjects were classified into one of the following groups: cured (resolution of all clinical signs and symptoms of infection or sufficient improvement such that additional antimicrobial therapy was not required), failure (insufficient resolution of at least one of the initial signs and symptoms of infection, or the need for any additional or alternative antimicrobial therapy, or the need for surgical treatment of the infection), or indeterminate (assessment not possible for any reason). • Proportion of subjects with a clinical cure at EOT with BisEDT or placebo. • Proportion of subjects with a confirmed or presumed microbiological cure 2 weeks following the end of dosing, TOC. Subjects were classified into one of the following groups: confirmed eradication (all of the original pathogens were absent), presumed eradication (there was no available material for culture but the infection clinically responded to treatment), persistence (presence of a pathogen isolated at baseline), or indeterminate (inability to determine microbiological response). • Proportion of subjects with a confirmed or presumed microbiological cure at the EOT and EOS. At the EOS visit, additional classification groups included: colonization (isolation of a new organism that was not present on the initial culture but the wound was not clinically infected); reinfection (isolation of a new organism that was not present on the initial culture and the wound was clinically infected) or relapse (the same organism that was present on the initial culture was again isolated, after an intervening confirmed [sterile culture] or presumed [no material to culture] microbiological response and the wound was clinically infected). • Change from baseline in the Biofilm Score at EOT and TOC. • Proportion of subjects that underwent lower-extremity amputation involving the infected foot. • Proportion of subjects needing any infection-related surgery (ie, lower-extremity amputation, incision and drainage of a new abscess, or soft tissue or bone resection) after treatment had started. • Change from baseline in the 8-item DFI wound score at EOT, TOC, and EOS. • Percent reduction in ulcer size at EOS and each study visit.
Microbiological Response: The distribution of microbiological response outcome categories (confirmed eradication, presumed eradication, persistence, and indeterminate) are descriptively summarized by treatment group using counts and percentages at the TOC, EOT, and EOS visits. The eradication rate (confirmed+presumed vs the rest) was analyzed using the same methodology as clinical response. Analyses are presented for the ME Population.
Colonization, Reinfection, and Relapse: At the EOS visit, the number and percentage of subjects with a colonization, reinfection, or relapse are tabulated by treatment group for the ME Population.
Microbiologic assessment. Cultures were collected at baseline and as needed for the treatment of the subject. Tissue samples were shipped to a central laboratory where the presence of viable microorganisms was determined by standard microbiological culture methods and included speciation. […] The susceptibility of bacterial isolates to BisEDT was also determined, but was not reported to investigators.

The nature of data set [2]: Phase 1b/2a DFI study (Example 7): safety and tolerability. The class given is in vivo, human. The source says: The primary objective of Part 1 of this study and the planned primary objective of Part 2 of this study was to evaluate the safety and tolerability of topically administered BisEDT composition as adjunct to standard of care (including systemic antibiotic therapy) in subjects with a moderate to severe DFI. The secondary objectives of Part 1 of this study and the planned secondary objectives of Part 2 of this study were: To evaluate the effect of adjunctive BisEDT composition on resolution of infection; To evaluate the effect of adjunctive BisEDT composition on eradication of pathogens; To evaluate the effect of BisEDT composition on eradication of biofilms; To evaluate the effect of BisEDT composition on wound healing; To evaluate the effect of BisEDT composition for the prevention of lower extremity amputations; To evaluate the effect of BisEDT composition for the prevention of infection related surgery; To evaluate the effect of BisEDT composition on duration of systemic antibiotic use; To evaluate the effect of BisEDT composition on length of hospital stay; To evaluate the systemic absorption and pharmacokinetics of topically administered BisEDT composition.

The subject of data set [3] is Staphylococcus aureus (S. aureus). Kind of data set: Staphylococcus aureus mouse model: efficacy of BisEDT on spleen and wound titer (Example 4). The class given is in vivo. The method, then:
Establishment of Mouse Model: A luminescent strain of Staphylococcus aureus (S. aureus) was administered intravenously to adult, female, Swiss Webster mice and 48 hours was allowed for a biofilm to form. Mice were treated daily intravenously with 100 μL of serial dilutions of BisEDT. In this example, BisEDT was used as a suspension (w:v) (e.g. 150, 375, or 750 μg/mL) of drug particles in diluent, which is composed of 3% methylcellulose/0.5% polysorbate 80/10 mM sodium chloride/10 mM sodium phosphate, pH 7.4.
Imaging Studies: Mice were imaged using Silhouette to determine wound size and volume, and In Vivo Imaging Systems (IVIS) Lumina X5 to quantitate bioluminescence.
Terminal colony forming units (CFU) were determined by plating homogenized tissue from the wound bed and in the spleen. Mice were euthanized and wound tissue and spleens were harvested. Tissue samples were weighed and placed into microtubes containing sterile phosphate buffer and homogenized. The homogenate was then serially diluted and plated to determine CFU/g tissue.
An initial study evaluated the effect of BisEDT suspension on CFUs in the spleen and wound bed. The study occurred over 11 days with 9 days of treatment. The BisEDT suspension was administered to 30 (n=5 mice/group) mice at concentrations of 2500, 250, 25, 2.5, 0.25, 0.25, 0.025 μg/mL. A comparator control was vehicle, or diluent, and 50% DMSO in PBS.
A subsequent study evaluated the effect of higher concentrations of BisEDT suspension on CFUs in the spleen and wound bed. The study occurred over 12 days with 10 days of treatment. BisEDT suspension was administered to 20 (n=5 mice/group) at concentrations of 10, 5, 2.5, and 0.75 mg/mL. A negative control was mice that were untreated, and a positive control was mice that were treated with Prontosan. […] Complete inhibition was observed compared to the untreated control (FIG. 3). Further, treatment with 5 mg/mL BisEDT reduced CFUs by 1.5-2 logs, greater than the positive prontosan control.

Data set [4] in a line: Particle size of microparticulate BisEDT, Nanosizer/Zetasizer Nano-S (Example 1). The class given is physicochemical. The conditions noted are these: resuspended in 2% Pluronic F-68, sonicated. The procedure: The dried particulate matter was characterized to assess the particle size properties. Briefly, microparticles were resuspended in 2% Pluronic® F-68 (BASF, Mt. Olive, NJ) and the suspension was sonicated for 10 minutes in a water bath sonicator at standard setting prior to analysis using a Nanosizer/Zetasizer Nano-S particle analyzer (model ZEN1600 (without zeta-potential measuring capacity), Malvern Instruments, Worcestershire, UK) according to the manufacturer's recommendations.

Data set [5] relates to subjects with a moderate to severe DFI. Nature of the data set: Phase 1b/2a DFI study (Example 7): biofilm score. The class given is in vivo, human. The conditions noted are these: ME Population, BisEDT dose groups vs placebo. The source says: Biofilm Response: The distribution of absolute scores at the EOT and TOC visits are descriptively summarized using counts and percentages by treatment group. Treatments were compared using the Cochran Mantel Haenszel mean score test statistic, and the p-value is presented. Additionally, shift tables showing individual subject changes from baseline to EOT and TOC visits are presented. Analyses are presented for the ME Population.
Biofilm response: The following categories were used: score 0, no bacteria observed; 1, single individual cells; 2, small micro-colonies (˜10 cells); 3, large micro-colonies (˜100 cells); 4, continuous film; 5, thick continuous film. Subjects with no debridement material as a result of their DFI healing were given a score of 0. The distribution of absolute scores at the EOT and TOC visits are descriptively summarized using counts and percentages by treatment group. Treatments were compared using the Cochran Mantel Haenszel mean score test statistic, and the p-value is presented. Additionally, a shift table showing individual subject changes from baseline to EOT and TOC visits is presented. Analyses are presented for the ME Population.

Data set [6] has the same test system. Nature of the data set: Phase 1b/2a DFI study (Example 7): clinical response. The conditions noted are these: MITT Population, BisEDT dose groups vs placebo. The class given is in vivo, human. The procedure: Methodology: This was a randomized, double-blind, placebo-controlled, multicenter study that was planned to be conducted in 2 parts. In Part 1, subjects were enrolled into escalating dose cohorts (BisEDT at concentrations of 150, 375, and 750 μg/mL resulting in doses of 3, 7.5, and 15 μg/cm^2) (N=16 per cohort) at a ratio of 3:1 (BisEDT to placebo).
In Part 1, subjects received either topical application of BisEDT or topical application of placebo, applied directly to the infected ulcer, 3 times per week, for a minimum of 2 weeks (ie, 6 doses) and up to a maximum of 3 weeks (ie, 9 doses). […] The determination to stop topical BisEDT therapy after a minimum of 2 weeks (ie, 6 doses) was at the discretion of the Principal Investigator and based on the resolution of clinical findings of infection.
Efficacy: The following clinical and microbiological efficacy outcomes were assessed: • Proportion of subjects with a clinical cure of infection 2 weeks following the end of dosing, TOC with BisEDT or placebo. […]
At the TOC, EOT, and EOS visits, the cure rate (cured vs not cured) was analyzed using an Exact Logistic Regression model with covariates for treatment dose group, the 8-item baseline wound score, and the interaction of treatment group and baseline wound score. […]

The nature of data set [7]: Phase 1b/2a DFI study (Example 7): pharmacokinetic evaluation, blood concentration of bismuth. The class given is in vivo, human. The following applies: topical BisEDT 3, 7.5, 15 μg/cm^2; whole blood concentrations. The method, then: The primary objective of Part 1 of this study and the planned primary objective of Part 2 of this study was to evaluate the safety and tolerability of topically administered BisEDT composition as adjunct to standard of care (including systemic antibiotic therapy) in subjects with a moderate to severe DFI. […]
The mean bismuth concentration by day for the PK Concentration Population included: 8 subjects on Day 1 predose (only 2 subjects with detectable levels of 0.582 and 0.548 ng/mL, hypothesized to be from undisclosed use of bismuth containing medications or from dressings containing bismuth, such as Xeroform®, as blood was collected before treatment with BisEDT); 8 subjects on Day 3 predose (only 1 subject with a detectable level of 0.525 ng/mL); 8 subjects on Day 5 predose (only 1 subject with a detectable level of 0.701 ng/mL); and 8 subjects on Day 8 predose (only 1 subject with a detectable level of 0.513 ng/mL). […] Bismuth levels were not measured in samples that were erroneously processed to plasma by the 1 site that enrolled the majority of the subjects in the PK study, as bismuth levels are expected to be 15 to 20 times lower in plasma samples compared to whole blood samples and would be well below the lower limit of quantitation for the assay method; no PK parameters were calculated.

The test system of data set [8] is Patients with Moderate to Severe Diabetic Foot Infection. Kind of data set: Phase 1b/2a study of topical BisEDT: wound surface area by 3D digital photographs (Example 6). The following applies: end of treatment, test of cure and end of study. The class given is in vivo, human. The procedure:
Adjunctive local administration of BisEDT was tested for its efficacy in resolving both infection and critical colonization, thereby removing these barriers to wound repair and closure. This represents a fundamental, clinically meaningful benefit.
Topical BisEDT suspension and placebo were used in combination with SOC systemic antibiotics (such as levofloxacin) for a duration of 2-3 weeks. […] BisEDT, when used in conjunction with systemic antibiotics, for a duration of […] (3× per week) may be beneficial in resolving both infection and critical colonization, therefore enabling wound repair and closure, a fundamental, clinically meaningful benefit.

Setting [9] is: EOS visit, ME Population, BisEDT dose groups vs placebo.
Setting [10] is: topical doses of 3, 7.5, and 15 μg/cm^2.

As to `C1C[S][Bi]([S]CC[S][Bi]2[S]CC[S]2)[S]1` [BisEDT, bismuth-1,2-ethanedithiol], in data set [1] (setting [9]), the “colonization, reinfection, and relapse, comparison of treatment groups” value is “No difference between treatment groups was observed”. Moreover, the “microbiological response, comparison of treatment groups” value in data set [1] (setting [9]) is reported as “No difference between treatment groups was observed”; in data set [1] (EOT visit, ME Population, BisEDT dose groups vs placebo) it was “No difference between treatment groups was observed”; in data set [1] (TOC visit, ME Population, BisEDT dose groups vs placebo), “No difference between treatment groups was observed”. For the same compound, the “reduction of reinfection or relapse with BisEDT compared to placebo” value in data set [1] (all dose groups combined 12.5% vs placebo 33.3%, EOS visit) is “approximately one-third”. Moreover, in data set [2] (setting [10]), the “TEAEs and SAEs related to study drug” value is “None of the TEAEs and SAEs occurring in the study were considered related to study drug”. Also, the safety signals result in data set [2] (setting [10]) was “No safety signals were identified”. In addition, the safety and tolerability entry in data set [2] (topical doses of 3, 7.5, and 15 μg/cm^2, 3 times per week, 2-3 weeks) was “safe and well tolerated”. The “mice exhibiting no infection (spleen)” value in data set [3] (2.5 mg/mL BisEDT (FIG. 4)) is listed as “three”. For the same compound, the “reduction of wound titer compared to diluent” value in data set [3] (2500 μg/mL BisEDT suspension, mice, 9 days of treatment (FIG. 1)) was “approximately five”. In addition, in data set [3] (10 mg/mL BisEDT, mice, 10 days of treatment, complete inhibition (FIG. 3)), the “reduction of CFU compared to untreated control” value is on record as “more than eight”. Besides, in data set [4], the “peak VMD” value was “about 1.3 microns”. In addition, the figures for the “biofilm response, comparison of treatment groups” value in data set [5] (EOT visit) and in data set [5] (TOC visit) were “No difference in biofilm response at the EOT visit between treatment groups was observed” and “No difference in biofilm response at the TOC visit between treatment groups was observed”, respectively. The “clinical response, comparison of treatment groups” value in data set [6] (EOT visit) and in data set [6] (TOC visit) was “No difference between treatment groups was observed” in each case. In addition, the systemic exposure entry in data set [7] was “very little systemic exposure; also recorded: does not appear to exhibit any relevant systemic exposure; also recorded: limited systemic exposure”. In addition, the “proportion of subjects with >50% reduction in wound surface area from baseline, compared to placebo” value in data set [8] was “larger proportion”.
